Test results from patent US8778935B2 (Centro Nacional de Investigaciones Oncologicas (CNIO), priority 2009, dated 2014).
pIC50: −log10 of the molar value.

Experiments:
PI3K (p110α/p85α) = target: T1, PI3K (p110α/p85α) (Homo sapiens, UniProt P42336); experiment: PI3K Activity Assay (ADP Hunter Plus); assay type: biochemical; details: PI3Kα activity, quantitative results; read-out: PI3Kα IC50
T1 construct: purchased Carna Biosciences 07CBS-0402A
Description: The kinase activity was measured by using the commercial ADP Hunter™ Plus assay available from DiscoveRx (#33-016), which is a homogeneous assay to measure the accumulation of ADP, a universal product of kinase activity. […] Reaction was carried out for 1 hour at 25° C. Reagent A and B were sequentially added to the wells and plates were incubated for 30 min at 37° C. […] Values were normalized against the control activity included for each enzyme (i.e., 100% PI3 kinase activity, without compound). These values were plot against the inhibitor concentration and were fit to a sigmoid dose-response curve by using the Graphad software.

phospho-Ser-473-Akt = experiment: PI3K signalling: AKT phosphorylation inhibition, Western blot analysis; assay type: cell-based; details: Homo sapiens, cell assay, read-out: IC50 of AKT Phosphorylation Inhibition (p-AKT cell)
Description: Cell culture: The cell lines were obtained from the American Type Culture Collection (ATCC). U2OS (human osteosarcoma) was cultured in Dulbecco's modified Eagle's medium (DMEM). PC3 (human prostate carcinoma), MCF7 (human breast cardinoma), HCT116 (human colon carcinoma), […], U251 (human glyoblastoma) were grown in RPMI. All media were supplemented with 10% fetal bovine serum (FBS) (Sigma) and antibiotics-antimycotics. Cell were maintained in a humidified incubator at 37° C. with 5% CO2 and passaged when confluent using trypsin/EDTA.
AKT phosphorylation Inhibition. Western Blot Analysis: Subconfluent cells were incubated under different conditions and washed twice with TBS prior to lysis. Lysis buffer was added containing 50 mM Tris HCl, 150 mM NaCl, 1% NP-40, 2 mM Na3VO4, 100 mM NaF, 20 mM Na4P2O7 and protease inhibitor cocktail (Roche Molecular Biochemicals). The proteins were resolved on 10% SDS-PAGE and transferred to nitrocellulose membrane (Schleicher & Schuell, Dassel, Germany). The membranes were incubated overnight at 4° C. with antibodies specific for Akt, phospho-Ser-473-Akt (Cell Signaling Technology) and α-tubulin (Sigma), they were washed and then incubated with IRDye800 conjugated anti-mouse and Alexa Fluor 680 goat anti-rabbit IgG secondary antibodies. The bands were visualized using an Odyssey infrared imaging system (Li-Cor Biosciences).

T1 sequence (P42336 whole entry): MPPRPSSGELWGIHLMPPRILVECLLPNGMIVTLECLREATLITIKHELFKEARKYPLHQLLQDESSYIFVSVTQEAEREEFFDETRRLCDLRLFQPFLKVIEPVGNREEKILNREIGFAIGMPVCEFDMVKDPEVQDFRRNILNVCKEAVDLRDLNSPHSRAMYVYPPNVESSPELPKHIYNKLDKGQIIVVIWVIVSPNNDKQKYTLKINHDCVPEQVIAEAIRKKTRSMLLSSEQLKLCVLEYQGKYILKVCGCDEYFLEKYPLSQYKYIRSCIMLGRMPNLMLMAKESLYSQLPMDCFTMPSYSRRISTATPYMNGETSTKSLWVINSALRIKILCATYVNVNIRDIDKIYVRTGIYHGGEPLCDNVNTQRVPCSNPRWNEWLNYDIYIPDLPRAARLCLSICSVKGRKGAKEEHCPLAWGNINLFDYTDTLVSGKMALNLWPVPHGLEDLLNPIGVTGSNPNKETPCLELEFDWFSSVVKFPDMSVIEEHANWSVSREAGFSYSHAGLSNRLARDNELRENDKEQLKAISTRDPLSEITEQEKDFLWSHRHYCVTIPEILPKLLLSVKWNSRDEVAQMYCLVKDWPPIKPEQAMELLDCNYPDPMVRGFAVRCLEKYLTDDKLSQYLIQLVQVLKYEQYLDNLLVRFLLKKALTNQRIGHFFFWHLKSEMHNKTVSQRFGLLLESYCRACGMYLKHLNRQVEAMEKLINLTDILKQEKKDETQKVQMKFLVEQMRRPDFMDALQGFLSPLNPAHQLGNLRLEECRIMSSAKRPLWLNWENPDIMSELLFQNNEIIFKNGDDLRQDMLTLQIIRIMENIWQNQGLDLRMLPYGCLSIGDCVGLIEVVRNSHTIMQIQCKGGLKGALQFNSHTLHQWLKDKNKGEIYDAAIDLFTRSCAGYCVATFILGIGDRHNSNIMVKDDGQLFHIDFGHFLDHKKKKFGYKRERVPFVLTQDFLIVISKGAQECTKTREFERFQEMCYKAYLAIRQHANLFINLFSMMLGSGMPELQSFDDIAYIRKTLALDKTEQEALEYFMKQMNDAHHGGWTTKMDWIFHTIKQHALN
T1 sequence (P27986 whole entry partner): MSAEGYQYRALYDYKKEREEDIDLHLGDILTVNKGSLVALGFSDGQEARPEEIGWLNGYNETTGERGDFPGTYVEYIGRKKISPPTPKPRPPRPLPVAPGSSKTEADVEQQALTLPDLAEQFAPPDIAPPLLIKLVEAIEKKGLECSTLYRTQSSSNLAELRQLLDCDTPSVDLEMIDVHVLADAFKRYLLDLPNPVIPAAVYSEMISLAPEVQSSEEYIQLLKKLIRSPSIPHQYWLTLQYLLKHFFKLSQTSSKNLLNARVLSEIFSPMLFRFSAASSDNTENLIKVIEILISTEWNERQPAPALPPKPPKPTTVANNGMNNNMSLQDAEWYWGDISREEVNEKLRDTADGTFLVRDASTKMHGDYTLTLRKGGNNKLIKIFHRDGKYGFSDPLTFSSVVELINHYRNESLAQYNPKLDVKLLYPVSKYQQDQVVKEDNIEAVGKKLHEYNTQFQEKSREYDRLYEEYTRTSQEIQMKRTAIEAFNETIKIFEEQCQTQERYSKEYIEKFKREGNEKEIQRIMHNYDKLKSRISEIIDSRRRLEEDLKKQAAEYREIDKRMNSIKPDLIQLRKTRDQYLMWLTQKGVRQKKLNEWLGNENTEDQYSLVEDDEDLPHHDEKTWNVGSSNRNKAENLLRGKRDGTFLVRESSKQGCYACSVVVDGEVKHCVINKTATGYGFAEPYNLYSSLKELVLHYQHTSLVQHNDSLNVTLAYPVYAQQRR

| SMILES | pIC50 (PI3K (p110α/p85α)) | pIC50 (phospho-Ser-473-Akt) |
| --- | --- | --- |
| Nc1ncc(-c2cn3cc(C(F)(F)F)nc3c(N3CCOCC3)n2)cn1 [2-172] | 7.49 | 6.83 |
| Nc1ncc(-c2cn3cc(C(=O)N[C@H]4CC[C@H](O)CC4)nc3c(N3CCOCC3)n2)cn1 [2-192] | 8.00 | 7.15 |
| CCS(=O)(=O)N1CCN(Cc2cn3cc(-c4cnc(N)nc4)nc(N4CCOCC4)c3n2)CC1 [2-220] | 7.89 | 7.01 |
| CC(C)CS(=O)(=O)N1CCN(Cc2cn3cc(-c4cnc(N)nc4)nc(N4CCOCC4)c3n2)CC1 [2-221] | 7.96 | 6.87 |
| Nc1ncc(-c2cn3cc(CN4CCS(=O)(=O)CC4)nc3c(N3CCOCC3)n2)cn1 [2-222] | 7.09 | 7.02 |

Further molecules by rising pIC50 (PI3K (p110α/p85α)), results first:

| pIC50 (PI3K (p110α/p85α)) | pIC50 (phospho-Ser-473-Akt) | SMILES |
| --- | --- | --- |
| 7.08 | 6.33 | Nc1ncc(-c2cn3cc(CN4CCOCC4)nc3c(N3CCOCC3)n2)cn1 [2-175] |
| 7.18 | 6.55 | COCCNC(=O)c1cn2cc(-c3cccc4[nH]ncc34)nc(N3CCOCC3)c2n1 [2-186] |
| 7.68 | 6.87 | Cc1ncc(-c2cn3cc(CN4CCN(S(C)(=O)=O)CC4)nc3c(N3CCOCC3)n2)cn1 [2-196] |
| 8.52 | 7.22 | CCOC(=O)N1CCC(NC(=O)c2cn3cc(-c4cnc(N)nc4)nc(N4CCOCC4)c3n2)CC1 [2-188] |
| 8.52 | 6.61 | C[C@@H]1CN(S(C)(=O)=O)C[C@H](C)N1Cc1cn2cc(-c3cnc(N)nc3)nc(N3CCOCC3)c2n1 [2-219] |
